“And” between values parts separate entries of the source, which are not always exact repeats. Identical values can stand only once. “Also recorded” adds a separate entry of the source.
Assays:
arginase 2 [1] = settings: arginase 2 inhibition; ref Colleluori and Ash 17; cited from earlier work
[2] = biological target: T1, recombinant human arginase 1 (Homo sapiens, UniProt P05089); assay: Arginase 1 inhibition, UPLC-MS measurement of ARG to ORN conversion in HEK293T cell lysate; settings: for % of control activity at the corresponding [Inhibitor] ± SE: mean of two experiments;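 on all read-outs here: arginase 1–expressing HEK293T lysate at 0.05 mg/mL in pH 7.4 phosphate buffer, inhibitor preincubated 5 min with enzyme, then reaction started by adding ARG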
T1 sequence (P05089 1-322): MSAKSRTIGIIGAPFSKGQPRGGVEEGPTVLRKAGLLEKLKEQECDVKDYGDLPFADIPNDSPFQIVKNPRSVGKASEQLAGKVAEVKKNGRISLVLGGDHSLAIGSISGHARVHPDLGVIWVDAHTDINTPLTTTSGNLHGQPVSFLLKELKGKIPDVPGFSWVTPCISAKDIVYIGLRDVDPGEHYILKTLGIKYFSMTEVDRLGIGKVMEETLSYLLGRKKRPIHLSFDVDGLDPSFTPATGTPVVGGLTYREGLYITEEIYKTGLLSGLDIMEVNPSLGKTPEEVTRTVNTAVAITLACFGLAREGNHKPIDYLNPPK
Procedure: (§1) Following a 5-min pre-equilibration period reactions were initiated by the addition of the cell lysate solution in 0.05 M phosphate buffer to a pre-equilibrated aqueous solution of the substrate (ARG).
(§2) The samples were vortex mixed (20 sec) and cooled in an ice/water bath for 10 min prior to centrifugation (5 min, 18,000 × g, room temperature) to precipitate the proteins. An aliquot of the supernatant layer was diluted with a 7:3 mobile phase A/mobile phase B solution into glass UPLC vial inserts.
(§3) Incubation mixtures comprised of HEK293T cell lysate expressing arginase 1 (0.05 mg/mL) or arginase 2 (0.1 mg/mL), phosphate buffer (0.05 M, pH 7.4), inhibitor (0, 0.1, 1, 10, 100, 1000 or 10000 μM) and ARG (0.1, 2 or 3 mM). Following a 5-min pre-incubation of the potential inhibitor with arginase 1 or arginase 2, reactions were initiated by the addition of a pre-equilibrated solution of the substrate ARG.
Ki values were derived from fitting the competitive inhibition equation to experimental data. Ki data are the mean of three singlicate experiments.

arginase 2 [3] = assay: HOMOARG as a substrate for arginase 2, formation of LYS by UPLC-MS; format: biochemical, human; settings: LYS limit of detection 0.3 µM
[4] = biological target: T2, recombinant human arginase 2 (Homo sapiens, UniProt P78540); assay: Arginase 2 inhibition, UPLC-MS measurement of ARG to ORN conversion in HEK293T cell lysate; settings: for % of control activity at the corresponding [Inhibitor] ± SE: mean of two experiments;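 on all read-outs here: HEK293T lysate carrying arginase 2 at 0.1 mg/mL in 0.05 M phosphate buffer pH 7.4, inhibitor preincubated with enzyme 5 min before ARG addition started the reaction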
T2 sequence (P78540 23-354): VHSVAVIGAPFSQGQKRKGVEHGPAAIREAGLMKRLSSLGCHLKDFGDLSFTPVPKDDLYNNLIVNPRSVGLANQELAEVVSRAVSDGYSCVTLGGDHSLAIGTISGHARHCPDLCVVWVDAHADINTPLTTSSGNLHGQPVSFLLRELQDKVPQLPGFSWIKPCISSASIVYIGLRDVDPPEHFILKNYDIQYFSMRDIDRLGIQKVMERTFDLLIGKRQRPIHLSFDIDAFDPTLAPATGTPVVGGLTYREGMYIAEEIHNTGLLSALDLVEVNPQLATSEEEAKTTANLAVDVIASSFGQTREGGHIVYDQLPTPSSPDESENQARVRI
Procedure: as §1, §2, §3
Sample were diluted 3:17 in mobile phase solution prior injection.

arginase 1 [5] = settings: arginase 1 inhibition; ref Ikemoto et al. 12; cited from earlier work
arginase 1 [6] = assay: HOMOARG as a substrate for arginase 1, formation of LYS by UPLC-MS; format: biochemical, human; settings: LYS limit of detection 0.3 µM

Compound: N=C(N)NCCCC[C@H](N)C(=O)O [HOMOARG, homoarginine]
- Ki (arginase 2 [1]): 39 mM
- inhibition of arginase 1 activity ([2]; ARG 100 µM (physiological), inhibitor 1 mM): 30%
- inhibition of arginase 1 activity ([2]; ARG 100 µM (physiological), inhibitor 10 mM): 76%
- inhibition of arginase 1 activity ([2]; ARG 3 mM (Km), inhibitor 1 mM): 14%
- inhibition of arginase 1 activity ([2]; ARG 3 mM (Km), inhibitor 10 mM): 50%
- inhibitory effect on arginase 1 activity at physiological inhibitor concentrations ([2]; LYS 100–1000 µM, HOMOARG 1–10 µM): no significant inhibitory effects
- % of control activity at the corresponding [Inhibitor] ± SE ([2]; arginase 1, ARG 100 µM, inhibitor 1 µM): 112 ± 4%
- % of control activity at the corresponding [Inhibitor] ± SE ([2]; arginase 1, ARG 100 µM, inhibitor 10 µM): 107 ± 4%
- % of control activity at the corresponding [Inhibitor] ± SE ([2]; arginase 1, ARG 100 µM, inhibitor 100 µM): 85 ± 1%
- % of control activity at the corresponding [Inhibitor] ± SE ([2]; arginase 1, ARG 100 µM, inhibitor 1,000 µM): 70 ± 1%
- % of control activity at the corresponding [Inhibitor] ± SE ([2]; arginase 1, ARG 100 µM, inhibitor 10,000 µM): 24 ± 8%
- % of control activity at the corresponding [Inhibitor] ± SE ([2]; arginase 1, ARG 3 mM, inhibitor 1 µM): 106 ± 7%
- % of control activity at the corresponding [Inhibitor] ± SE ([2]; arginase 1, ARG 3 mM, inhibitor 10 µM): 110 ± 1%
- % of control activity at the corresponding [Inhibitor] ± SE ([2]; arginase 1, ARG 3 mM, inhibitor 100 µM): 96 ± 6%
- % of control activity at the corresponding [Inhibitor] ± SE ([2]; arginase 1, ARG 3 mM, inhibitor 1,000 µM): 86 ± 13%
- % of control activity at the corresponding [Inhibitor] ± SE ([2]; arginase 1, ARG 3 mM, inhibitor 10,000 µM): 50 ± 1%
- activity retained vs. control ([2]; arginase 1, physiological HOMOARG concentrations (1–10 µM)): 90%
- inhibition model fitting the data ([2]; arginase 1, poorly fit by uncompetitive, noncompetitive and mixed models): competitive
- IC50 ([2]; read-out: IC50 ( ± SE), arginase 1, ARG 3 mM): 8.14 ± 0.52 mM
- Ki ([2]; read-out: Ki ( ± SE), arginase 1, competitive inhibition model, ARG 0.6–15 mM): 6.1 ± 0.5 mM
- substrate activity, formation of LYS from HOMOARG (arginase 2 [3]): could not detect; also recorded: not a substrate
- inhibition of arginase 2 ([4]; ARG 100 µM, inhibitor 1 mM): 47%
- inhibition of arginase 2 ([4]; ARG 100 µM, inhibitor 10 mM): 88%
- % of control activity at the corresponding [Inhibitor] ± SE ([4]; arginase 2, ARG 100 µM, inhibitor 1 µM): 107 ± 2%
- % of control activity at the corresponding [Inhibitor] ± SE ([4]; arginase 2, ARG 100 µM, inhibitor 10 µM): 105 ± 5%
- % of control activity at the corresponding [Inhibitor] ± SE ([4]; arginase 2, ARG 100 µM, inhibitor 100 µM): 100 ± 5%
- % of control activity at the corresponding [Inhibitor] ± SE ([4]; arginase 2, ARG 100 µM, inhibitor 1,000 µM): 53 ± 4%
- % of control activity at the corresponding [Inhibitor] ± SE ([4]; arginase 2, ARG 100 µM, inhibitor 10,000 µM): 12 ± 5%
- % of control activity at the corresponding [Inhibitor] ± SE ([4]; arginase 2, ARG 2 mM, inhibitor 1 µM): 95 ± 3%
- % of control activity at the corresponding [Inhibitor] ± SE ([4]; arginase 2, ARG 2 mM, inhibitor 10 µM): 106 ± 2%
- % of control activity at the corresponding [Inhibitor] ± SE ([4]; arginase 2, ARG 2 mM, inhibitor 100 µM): 94 ± 2%
- % of control activity at the corresponding [Inhibitor] ± SE ([4]; arginase 2, ARG 2 mM, inhibitor 1,000 µM): 72 ± 1%
- % of control activity at the corresponding [Inhibitor] ± SE ([4]; arginase 2, ARG 2 mM, inhibitor 10,000 µM): 15 ± 8%
- activity retained vs. control ([4]; arginase 2, physiological HOMOARG concentrations (1–10 µM)): 90%
- inhibition model fitting the data ([4]; arginase 2, poorly fit by uncompetitive, noncompetitive and mixed models): competitive
- inhibition of arginase 2 at physiological inhibitor concentrations ([4]; physiological LYS and HOMOARG concentrations): no significant inhibition
- IC50 ([4]; read-out: IC50 ( ± SE), arginase 2, ARG 2 mM): 2.5 mM and 2.52 mM
- Ki ([4]; read-out: Ki ( ± SE), arginase 2, competitive inhibition model, ARG 0.5–8 mM): 1.7 mM and 1.73 mM
- Ki (arginase 1 [5]): 5 to 5.2 mM
- substrate activity, formation of LYS from HOMOARG (arginase 1 [6]): could not detect; also recorded: not a substrate
